Source: patent publication US20240239848A1, “HOLOTHURIAN-DERIVED ACTIVE PEPTIDE WITH IMMUNE ACTIVITY, PREPARATION METHOD AND APPLICATION THEREOF” (BOHAI UNIVERSITY, priority 2023, published 2024)
No end group written: not given here.

How the values were obtained:
Format in all cases: cell-based, mouse
[1] = tested on: macrophage RAW264.7 induced by LPS; assay: NO release from macrophage RAW264.7 induced by LPS (NO kit)
Experimental: (2) Influence of Synthetic Peptide on NO Release from Macrophage RAW264.7 Induced by LPS
(§1) Blank group: macrophage RAW264.7 cells are inoculated into a 96-well plate and cultured for 24 h.
Induced injury group: after cell culture, cells in blank group are treated with 100 ng/ml LPS for 24 h, and then treated with synthetic peptides with different concentrations (50-200 μg/mL) for 24 h.
(§2) Negative control group: after cell culture in blank group, cells are treated with 100 ng/mL LPS for 24 h.
The NO release amount of different components is measured by NO kit. After 24 hours of treatment with synthetic peptides with different concentrations, the NO release amount of macrophage RAW264.7 induced by LPS is shown in FIG. 3.

[2] = tested on: IL-1β; assay: IL-1β secretion of macrophage RAW264.7 induced by LPS (ELISA); settings: LPS-induced RAW264.7, peptide 200 μg/mL
Experimental: (§3) (2) Influence of IIENAVQ on the secretion of cytokines (IL-1β, TNF-α) of macrophage RAW264.7 induced by LPS
as §1
(§4) Induced injury group: after the cells in the blank group are cultured, the cells are treated with 100 ng/mL LPS for 24 h, and then treated with different concentrations (50-200 μg/mL) of IIENAVQ for 24 h.
as §2
(§5) The cytokines of different components are determined by ELISA kit.
(§6) The final detection results of (1) and (2) are illustrated in FIG. 4A and FIG. 4B.

[3] = tested on: TNF-α; assay: TNF-α secretion of macrophage RAW264.7 induced by LPS (ELISA); settings: LPS-induced RAW264.7, peptide 200 μg/mL
Experimental: as §3, §1, §4, §2, §5, §6

[4] = tested on: macrophage RAW264.7; assay: Survival rate of macrophages RAW264.7 (CCK-8 method); settings: RAW264.7, synthetic peptide 50-200 μg/mL, 24 h
Experimental: Blank group: Macrophages RAW264.7 are inoculated into 96-well plates and cultured for 24 h.
Sample group: synthetic peptides with different concentrations (50-200 μg/mL) are used for treating for 24 h.
The CCK-8 method is used to measure the absorbance values of different components, and the survival rate of macrophage RAW264.7 is calculated according to the absorbance values.

For IIENAVQ [IIENAVQ], the “release of NO from macrophages RAW264.7 induced by LPS, compared with LPS-negative control group” value ([1]; 100 ng/mL LPS 24 h, then peptide 50-200 μg/mL 24 h) was “significantly reduces”, the “final concentration of NO” value ([1]; LPS-induced RAW264.7, peptide 200 μg/mL) was 27.99 ± 0.33 µmol/L and the “inhibition rate of IL-1β secretion” value [2] was 51.54%. The “secretion of cytokine IL-1β” value [2] was 28.73 ± 1.12 pg/mL, the “inhibition rate of TNF-α secretion” value [3] was 60.24% and the “secretion of cytokine TNF-α” value [3] was 70.78 ± 5.55 pg/mL. For the same substance, the cell survival rate [4] was 116.88%.
